The IC50 is the midpoint of a concentration-inhibition curve. A word on the Ki: it is a measure of affinity in units of concentration, obtained from inhibition or displacement.

Consider twelve molecules from patent US5411983A, “Certain hyrdoxy-phosphinyl-oxy-phenylmethyl-imidazolium hydroxide inner salts as PAF antagonists” (American Cyanamid Company, priority 1993, dated 1995).

The target of assay [1] is T1, PAF receptor (Oryctolagus cuniculus, UniProt G1TEI7). Nature of the assay: Inhibition of PAF induced platelet aggregation in washed rabbit platelets. Details: In some experiments, washed platelets were used instead of PRP; endogenous in cells; host or cells: washed rabbit platelets. The class given is cell-based. The note with it: for IC50: challenge concentration of PAF 5E9M [sic]; for Ki: calculated from IC50, [PAF] and EC50. On the procedure:
(§1) Platelet activating factor (PAF) compounds were evaluated as PAF receptor antagonists in vitro by measuring inhibition of PAF induced platelet aggregation. Platelet aggregation was measured by a modification of the method of A. Wissner, et. al., J. Med. Chem., 27, 1174, 1984.
(§2) Approximately 120-240 ml of blood were collected by cardiac puncture from unanesthetized male New Zealand White rabbits (Whaley's Summit View Farms, Belvedere, N.J.) with the use of 3.2% sodium citrate anticoagulant (1 part of citrate/10 parts of blood). All syringes and pipets were plastic. The blood was gently mixed and immediately centrifuged at 800 rpm for 10 minutes at room temperature to recover the platelet rich plasma (PRP). Platelet poor plasma (PPP) was prepared by centrifuging PRP at 2800 rpm for 10 minutes at room temperature.
(§3) Dilutions (1:3000) Of PRP in Isoton diluent were made and platelet counts were determined on a Coulter Thrombocounter which was standardized with platelet reference standards (Interscience Platelet Control, Portland, Oreg.). PRP platelet counts were adjusted to 500,000 platelets/μl by the addition of PPP.
(§4) L-PAF was obtained from Calbiochem. A stock solution of 1-2 E-3M was prepared in 10% ethanol in water and serial working dilutions were made using phosphate buffered saline (PBS). 1-2 E-3M stock solutions of test compounds were prepared in 100% methanol and serially diluted in PBS. All solutions were made up in plastic tubes, stored on ice and protected from heat and light. Solutions were prepared fresh or frozen at -20° C. and used within 48 hours.
(§5) Incubation mixtures consisted of 400 μl PRP, 50 μl of PBS diluent or test compound and 50 μl of PAF agonist. More specifically, 400 μl of PRP was stabilized in a cuvette for 1-2 minutes at 37° C. in the aggregometer to achieve a stable baseline, then 50 μl of PBS or test compound, was added and incubated for 5 minutes before addition of the challenge concentration of PAF ([…], as determined from the dose response curve for PAF for that experiment). Aggregation was monitored for 5 minutes. Samples containing test compound or diluent were run simultaneously for comparison. Test compounds were initially evaluated at a screening concentration of 1E-5M. Those producing ≥ 50% inhibition of the magnitude of aggregation were then reevaluated in a dose response fashion (final concentrations 1E-7M to 5E-5M) and IC50 values were determined. Ki values were also calculated in some cases from [formula] where Ki =inhibitory constant
(§6) IC50 =molar concentration of test compound which gives 50% inhibition
(§7) [PAF]=molar concentration of PAF used as challenges
(§8) EC50 =molar concentration of PAF which gives 50% of maximal aggregation.
(§9) The recording equipment consisted of single or dual channel Chronolog aggregometers connected to dual channel 10 MV full scale deflection Omniscribe chart recorders (Houston Instruments). […] The bead suspension was used to set the 0% light transmission mark and clear water was used to set the 100% light transmission mark. These limits defined a full scale deflection. The aggregation traces were analyzed by a digitizing method (C. Kohler and B. Zoltan, J. Pharm. Methods, 12, 113, 1984) with x, y coordinate data stored in a computer file. A suitable program computed parameters of interest such as the magnitude of aggregation.
In some experiments, washed platelets were used instead of PRP. Washed platelet suspensions were prepared as follows. PRP was centrifuged at 2800 rpm for 10 minutes to obtain PPP and a platelet pellet. The pellet was gently suspended and washed in calcium free, albumin free Tyrode's buffer, pH 6.3. The suspension was recentrifuged and the washed pellet was resuspended in normal Tyrodes', buffer (with calcium, but albumin free), pH 7.4. Platelet counts were adjusted to 500,00 platelets/μl.

The target in assay [2] is T1, PAF receptor. Nature of the assay: Inhibition of PAF induced platelet aggregation in rabbit platelet rich plasma (PRP). The class given is cell-based, rabbit (male New Zealand White). Details: immediately centrifuged at 800 rpm for 10 minutes at room temperature to recover the platelet rich plasma (PRP); endogenous in cells; host or cells: rabbit platelets in platelet rich plasma (male New Zealand White rabbits). The note with it: for IC50: rabbit platelet rich plasma. On the procedure:
as §1, §2, §3, §4, §5, §6, §7, §8, §9

Assay [3] has as its system PAF induced vascular permeability change in mouse skin. Nature of the assay: Inhibition of PAF induced vascular permeability change in mouse skin. The note with it: ip, 0.5 h, test compound i.p., PAF i.d., read-out: Inhibition of Vascular Permeability Lesion (ED50 mg/kg). The format is in vivo, mouse (Hilltop ICR). On the procedure:
Inhibition of PAF Induced Vascular Permeability Change in Mouse Skin
The rationale for this test is similar to the coinjection test in guinea pigs; however, the test compound was given intraperitoneally rather than coinjected.
Test solutions were prepared as follows: An 80 μg portion of PAF was dissolved in 40 ml of saline to yield a concentration of 2000 ng/ml. A 10 mg portion of histamine diphosphate was dissolved in 100 ml of saline to yield a concentration 100 μg/ml. Test compounds were dissolved in saline and given intraperitoneally (20 mg/kg) 1/2 hour before intradermal challenge with PAF or histamine.
The animals used were Hilltop ICR mice, shaved on their flanks one day before use. The mice were randomly assigned to treated and control groups and were given test compound or saline 1/2 hour before challenge. Each mouse was injected via a tail vein with 0.25 ml of 0.05% Evans' blue dye immediately before the PAF or histamine intradermal injections were made (0.05 ml each), one per side.
Thirty minutes later the animals were killed and the lesions areas measured as described above. Lesion areas in treated animals were expressed as a percent of the control lesions and an ED50 (mg/kg) was calculated from an arcsine area vs. log dose transform.

Another assay concerns PAF induced lethality. Nature of the assay: PAF induced lethality in the mouse. The format is in vivo, mouse (ICR). The note with it: ip, 1 h, mice, test compound i.p. 1/2 hour before PAF i.v., dose that protects 1/2 the animals, read-out: PAF induced Lethality PD50 (mg/kg I.P., 1/2 hour). As for the experimental part: PAF Induced Lethality in the Mouse
Test compounds were evaluated for their ability to prevent death induced by an intravenous injection of a lethal dose of PAF.
ICR mice were given test compounds intraperitoneally as described under Inhibition of PAF Induced Vascular Permeability Change in Mouse Skin, 1/2 hour before an intravenous dose of 100 μg/kg PAF in saline. One hour later the number of dead mice were recorded. Protection was expressed as percent survivors in treated group/percent survivors in control group.

The test system of assay [4] is PAF induced vascular permeability change in guinea pig skin.
From the text: Platelet Activating Factor (PAF) given intradermally, increases capillary permeability, and plasma proteins (e.g albumin) leak from the vascular space into the interstitial fluids of the skin. If the albumin has been previously stained with Evans' blue dye, the lesion area can be visualized as a blue spot in the .skin. A specific PAF antagonist inhibits the development of increased capillary permeability caused by PAF and reduces the leakage of proteins into the skin. Test compounds were evaluated for non-specific effects by monitoring their ability to inhibit or reduce a histamine induced increase in capillary permeability.
Test Solutions were prepared as follows: Evans' Blue Dye (Sigma E2129) was dissolved in saline to yield a 0.1% w/v solution. A 2 mg/ml stock chloroform solution of PAF (1-phosphotidyl, acetyl-O-alkyl; Sigma P9525) was diluted in saline to give final concentrations of 500 and 250 ng/ml. Saline dilutions were made fresh for each test. Histamine diphosphate solutions (Sigma H7375) were prepared by dissolving 10 mg in 100 ml of saline and diluting to 20 μg/ml with saline. Test compounds were dissolved in ethanol at 10 mg/ml and stored at -70° C. Injection mixtures were made by placing 10 μl of test compound solution into 1.0 ml of either the PAF solutions or the histamine solution.
The animals used were Hartley strain guinea pigs weighing 250-350 g, maintained with food and water ad libitum. The animals were shaved on their back and hind feet one day before use.
Each guinea pig was given an intravenous injection of 2 ml of Evans' blue dye solution into a foot vein. Immediately after, a series of six intradermal injections of 0.1 ml each were given, three on each side of the animal. They were: PAF 50 ng (0.1 ml of a 500 ng/ml solution); PAF 25 ng; and histamine diphosphate 2 μg. The left side injections contain 10 μg of test compound while the right side contain an equivalent amount of the ethanol vehicle to serve as a control.
Thirty minutes later the animals were killed by cervical dislocation and the skin reflected from the back. The lesion areas were approximated as the product of the largest diameter and normal diameter both in mm.
[5] abbreviates: IC50 (M) PRP, inhibition of PAF-induced platelet aggregation, PAF challenge 1E-6M.
Where [6] appears, read: IC50 (M) PRP, inhibition of PAF-induced platelet aggregation, PAF challenge 1E-7M.
Where [7] appears, read: IC50 (M) PRP, inhibition of PAF-induced platelet aggregation, PAF challenge 5E-8M.

Counter-ions that a name gives are not always drawn. A value given as a limit tells only on which side of the number the result lay.

T1 sequence (G1TEI7 1-342): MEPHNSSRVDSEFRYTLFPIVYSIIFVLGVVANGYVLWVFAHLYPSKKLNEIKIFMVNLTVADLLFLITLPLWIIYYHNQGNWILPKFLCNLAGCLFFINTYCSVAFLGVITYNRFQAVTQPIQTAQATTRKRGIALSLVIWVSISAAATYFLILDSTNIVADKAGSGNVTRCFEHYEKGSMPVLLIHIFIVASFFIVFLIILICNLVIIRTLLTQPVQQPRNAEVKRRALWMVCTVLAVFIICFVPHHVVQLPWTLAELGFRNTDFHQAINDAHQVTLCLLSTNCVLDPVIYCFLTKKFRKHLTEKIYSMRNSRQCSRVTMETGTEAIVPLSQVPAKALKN

For `CCCCCCCCCCCCCCCCOCC(COCc1cccc(Cn2cc[n+](C)c2)c1)OC` (centres unmarked) [1-[[3-[[3-(Hexadecyloxy)-2-methoxypropoxy]methyl]phenyl]methyl]-3-methyl-1H-imidazolium, iodide], the IC50 on PAF receptor [1] is 1.5 µM; on PAF receptor [2] (PAF challenge 5E-8M, read-out: IC50 (M) PRP, inhibition of PAF-induced platelet aggregation), 3.4e-06 M.
`CCCCCCCCCCCCCCCCCCNC(=O)OCC(COP(=O)([O-])Oc1ccccc1C[n+]1ccsc1)OC` (centres unmarked) [3-[[2-[(1-Hydroxy-4-methoxy-7-oxo-2,6-dioxa-8-aza-1-phosphahexacosyl)oxy]phenyl]methyl]thiazolium, hydroxide, inner salt, P-oxide]: the results for the ED50 (in assay [3]; in the assay on PAF induced lethality) were 5 mg/kg and < 2.5 mg/kg, respectively. In addition, in assay [4], the “Inhibition of Vascular Permeability Lesion (% of Control)” value (“Inhibition … (% of Control)” below) is recorded as 25 % of Control. In addition, the Ki on PAF receptor [1] was 0.0072 µM; on PAF receptor [2], 0.31 µM. In addition, the IC50 against PAF receptor [1] was 0.052 µM; on PAF receptor [2] (setting [5]), 2.5e-05 M; against PAF receptor [2] (setting [6]), 1.4e-06 M; against PAF receptor [2] (setting [7]), 5.6e-07 M.
Turning to `CCCCCCCCCCCCCCCCCCNC(=O)OCC(COP(=O)([O-])Oc1cccc(C[n+]2ccsc2)c1)OC` (centres unmarked) [3-[[3-[(1-Hydroxy-4-methoxy-7-oxo-2,6-dioxa-8-aza-1-phosphahexacosyl)oxy]phenyl]methyl]thiazolium, hydroxide, inner salt P-oxide], in assay [3], the ED50 is 6.2 mg/kg. In addition, the “Inhibition … (% of Control)” value in assay [4] is given as 61.8 % of Control.
As for `COC(COc1ccc(OCc2ccccc2)cc1)COP(=O)([O-])Oc1cccc(C[n+]2ccsc2)c1` (centres unmarked) [3-[[3-[[Hydroxy-2-methoxy-3-[4-(phenylmethoxy)phenoxy]propoxy]phosphinyl]oxy]phenyl]methyl]thiazolium, hydroxide, inner salt], the results for the ED50 (in assay [3]; with PAF induced lethality) were 20 mg/kg and < 25 mg/kg, respectively. For the same molecule, the “Inhibition … (% of Control)” value in assay [4] is on record as 67 % of Control. The same molecule displayed an IC50 against PAF receptor [2] (setting [7]) of 3.3e-05 M.
For `CCCCCCCCCCCCCCCCOCC(COP(=O)([O-])Oc1cccc(C[n+]2csc(C)c2)c1)OC` (centres unmarked) [3-[[3-[[[3-(Hexadecyloxy)-2-methoxypropoxy]hydroxyphosphinyl]oxy]phenyl]methyl]-5-methylthiazolium, hydroxide, inner salt], the ED50 is 4.8 mg/kg in assay [3] and < 1.25 mg/kg in the assay on PAF induced lethality. For the same molecule, the “Inhibition … (% of Control)” value in assay [4] is 24 % of Control. Besides, the inhibition constant Ki was 0.015 µM at PAF receptor [1] and 0.21 µM at PAF receptor [2]. In addition, the IC50 is 0.032 µM at PAF receptor [1], 1.2e-05 M on PAF receptor [2] (setting [5]), 7.1e-07 M against PAF receptor [2] (setting [6]) and 8.2e-07 M at PAF receptor [2] (setting [7]).
For the molecule `CCCCCCCCCCCCOc1cccc(OCC(COP(=O)([O-])Oc2cccc(C[n+]3ccsc3)c2)OC)c1C` (centres unmarked) [3-[[3-[[[3-[3-(Dodecyloxy)-2-methylphenoxy]-2-methoxypropoxy]hydroxyphosphinyl]oxy]phenyl]methyl]thiazolium, hydroxide, inner salt], the ED50 is 8.2 mg/kg in assay [3] and < 1.25 mg/kg with PAF induced lethality. In addition, in assay [4], the “Inhibition … (% of Control)” value is reported as 20.4 % of Control. At PAF receptor [2], this molecule had a Ki of 0.51 µM. In addition, the 50% inhibitory concentration (IC50) was found to be 2.4e-05 M at PAF receptor [2] (setting [5]), 1.9e-06 M against PAF receptor [2] (setting [6]) and 2.3e-06 M against PAF receptor [2] (setting [7]).
In turn, `COC(COCCCCCCCCOc1ccc(-c2ccccc2)cc1)COP(=O)([O-])Oc1cccc(C[n+]2ccsc2)c1` (centres unmarked) [3-[[3-[[[3-[[8-([1,1'-Biphenyl]-4-yloxy)octyl]-oxy]-2-methyoxypropoxy]hydroxyphosphinyl]-oxy]phenyl]methyl]thiazolium, hydroxide, inner salt] gave an IC50 on PAF receptor [2] (setting [6]) of 2.3e-06 M.
On to `CCCCCCCCCCCCCCCCCC(=O)NCC(COCCCCCCCCCCCCCCCC)COP(=O)([O-])Oc1cccc(C[n+]2ccsc2)c1` (centres unmarked) [3-[[3-[[[(2-[(Hexadecyloxy)methyl]-3-[(1-oxooctadecyl)amino]propoxy]hydroxy-phosphinyl]oxy]phenyl]methyl]thiazolium, hydroxide, inner salt], for which the figures for the concentration for half-maximal inhibition (IC50) at PAF receptor [2] (setting [6]) and at PAF receptor [2] (setting [7]) were 0.00013 M and 4.8e-05 M, respectively.
For `C=C(C)COC(COCCCCCCCCCCCCCCCC)COP(=O)([O-])Oc1cccc(C[N+](C)(C)C)c1` (centres unmarked) [3-[[[3-(Hexadecyloxy)-2[(2-methyl-2-propeny)oxy]propoxy]hydroxyphosphinyl]-oxy]- --N, --N, --N-trimethylbenzenemethanaminium, hydioxide, inner salt], half-maximal inhibition against PAF receptor [2] (setting [6]) (IC50) was put at 4.8e-05 M.
As to `CCCCCCCCCCCCOc1cccc(OCC(COP(=O)([O-])Oc2cccc(C[N+](C)(C)C)c2)OC)c1C` (centres unmarked) [3-[[[3-[3-(Dodecyloxy)-2-methylphenoxy]-2-methoxypropoxy]hydroxyphosphinyl]oxy]-N,N,N-trimethylbenzenemethanaminum, hydroxide, inner salt], the IC50 against PAF receptor [2] (setting [7]) amounted to 6e-06 M.
Take `CCCCCCCCCCCCCCc1cccc(OCC(COP(=O)([O-])Oc2cccc(C[S+](C)C)c2)OC)c1` (centres unmarked) [[[3-[[Hydroxy-[2-methoxy-3-(3-tetradecylphenoxy]propoxy]phosphinyl]oxy]-phenyl]methyl]dimethylsulfouium, hydroxide, inner salt]: the half-maximal inhibitory concentration (IC50) turned out to be 2.9e-05 M at PAF receptor [2] (setting [6]) and 3.4e-06 M at PAF receptor [2] (setting [7]).
`CCCCCCCCCCCCCCCCOCC(COP(=O)(O)Oc1cccc(C[P+](c2ccccc2)(c2ccccc2)c2ccccc2)c1)OC` (centres unmarked) [[[3-[[[3-(Hexadecyloxy)-2-methoxypropoxy]hydroxyphosphinyl]oxy]phenyl]-methyl]triphenylphosphonium, bromide]: it took 1.4e-05 M to reach half-maximal inhibition against PAF receptor [2] (setting [7]) (IC50).
